Test results reported in patent US9648872B2, “Water dispersible granule composition” (priority 2014, dated 2017).
≈ marks a conversion by molar mass, not a printed value.

Tests used:
[1] = cited from earlier work
[2] = Solubility of active ingredient; type: physicochemical
Source text: Formulations of water dispersible granules comprising microcapsules encapsulating active ingredients with higher water solubilities: • a. […] When attempting to prepare water dispersible granules comprising microcapsules of Thiamethoxam as per an embodiment of this invention, it was observed that Thiamethoxam was not soluble in the solvent C-9. It is observed that thiamethoxam decomposed immediately beyond its melting point. On attempting to add methylene diphenyl diisocyanate (MDI) in molten Thiamethoxam, it polymerized immediately due to high temperature. Thus Thiamethoxam could not be microencapsulated and it was not possible to prepare its water dispersible granular formulation. • b. […] A water dispersible granular composition comprising microcapsules of 25% Propoxur within a polyurea shell wall with Gohensol GL-03 was made, according to an embodiment of the invention, including maltodextrin as a water soluble suspension adjuvant in the filler base, along with clay, sodium lignosulfonate and alkyl naphthalene sulfonate (Supragil WP). The suspensibility observed was 85%. A water dispersible granule composition comprising microcapsules of 25% Propoxur was prepared with the microcapsules having a polyurea shell wall and polyvinyl alcohol Gohensol GL-03. […]

Row | SMILES | solubility in water [1] [µg/mL] | solubility in the solvent C-9 [2]
1 | CNC(=O)Oc1ccccc1OC(C)C [Propoxur] | 1800 (≈ 8.6 mM) | 
2 | CN1COCN(Cc2cnc(Cl)s2)/C1=N\[N+](=O)[O-] [Thiamethoxam] |  | not soluble
